Earlier results, collected in US20130137766A1, “Compound Used to Prevent Diseases Caused by Aquaporin Deficiency” (FU-JEN CATHOLIC UNIVERSITY, priority 2010, published 2013).

Tested on: AQP-3
Conditions: EGF-treated groups

## EGF: epidermal growth factor, literature comparator (Cong Cao et al.) (NSDSECPLSHDGYCLHDGVCMYIEALDKYACNCVVGYIGERCQYRDLKWWELR; UniProt P01133 971-1023, looked up)
  expression of AQP-3: significantly increased
  wound healing: wound healing was facilitated
